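1) Cells in 96-well plates. 2) Compound, 48 h, 5 concentrations. 3) Linear interpolation between surrounding doses. 4) Unreached endpoint = highest concentration. GI50 = concentration required for 50% inhibition of growth.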 Activity calls are given as the source filed them. Cut-off read from the data, not from the text of the source: active = GI50 up to about 1.1 µM and inactive = higher.

Broadly, the GI50 is the concentration that inhibits growth by half.

Among the test systems are OVCAR-8; COLO 205; SR; HL-60; HCT-116; HOP-92; NCI/ADR-RES; NCI-H23; SNB-19; CAKI-1; IGROV-1; K562; DU-145; EKVX; M14; SK-MEL-28; UO-31; A549; HCT-15; BT-549.
Assay in all cases: DTP human tumour cell line panel, 48 h

Regarding `CC1=CC2=C(OCO1)C(=O)c1ccccc1C2=O`, the GI50 in the assay on OVCAR-8 was 8.87 µM (inactive); in the assay with COLO 205 it was 5.86 µM (inactive); with SR, 7.82 µM (inactive); in the assay with HL-60 it was 3.95 µM (inactive); in the assay with HCT-116, 7.16 µM (inactive); in the assay on HOP-92 it was 10.4 µM (inactive). Moreover, the GI50 in the assay on NCI/ADR-RES was 3.31 µM (inactive); in the assay with NCI-H23 it was 3.27 µM (inactive); in the assay on SNB-19, 9.59 µM (inactive); with CAKI-1 it was 8.39 µM (inactive); with IGROV-1, 11 µM (inactive); in the assay with K562, 6.87 µM (inactive). Moreover, the GI50 in the assay on DU-145 was 2.16 µM (inactive); in the assay on EKVX, 46.7 µM (inactive); in the assay on M14, 4.73 µM (inactive); with SK-MEL-28, 4.86 µM (inactive); in the assay with UO-31, 7.94 µM (inactive); in the assay with A549, 6.08 µM (inactive). The GI50 with HCT-15 is 14.8 µM.

As for `COc1cc(/C=N/n2c(C)n[nH]c2=O)cc(OC)c1OC`, the GI50 was > 100 µM (inactive) with OVCAR-8; > 100 µM (inactive) with COLO 205; 78 µM (inactive) with BT-549; > 100 µM (inactive) with HCT-116; > 100 µM (inactive) with NCI/ADR-RES; > 100 µM (inactive) in the assay with NCI-H23. For the same molecule, the GI50 with SNB-19 is > 100 µM (inactive); in the assay with CAKI-1 it was > 100 µM (inactive); in the assay with K562, > 100 µM (inactive); in the assay with EKVX, 32.6 µM (inactive); in the assay with M14, > 100 µM (inactive); in the assay on SK-MEL-28, > 100 µM (inactive). The GI50 in the assay with UO-31 is 84.3 µM (inactive); with A549 it was > 100 µM (inactive); with HCT-15, over 100 µM.

`Cc1cc(O)cc(O)c1C(=O)O[C@]1(C)C(=O)C=C2C=C(/C=C/C(=O)O)OC=C2C1=O`: the GI50 in the assay on OVCAR-8 is > 100 µM (inactive); in the assay with COLO 205, > 100 µM (inactive); in the assay with SR it was 42.2 µM (inactive); in the assay with HL-60, 31.9 µM (inactive); in the assay with HCT-116, 76.9 µM (inactive); with HOP-92, 31.8 µM (inactive). The GI50 in the assay on NCI/ADR-RES, with NCI-H23, with SNB-19, in the assay with CAKI-1, in the assay with IGROV-1 and in the assay with K562 was > 100 µM (inactive) each time. Besides, the GI50 with DU-145, with EKVX, in the assay with M14, in the assay on SK-MEL-28, with UO-31 and in the assay with A549 was > 100 µM (inactive) each time. In addition, the GI50 with HCT-15 is over 100 µM.

On to `N#Cc1nc2cc(Cl)ccc2nc1N1CCN(c2ccc([N+](=O)[O-])cc2)CC1`, for which the GI50 with OVCAR-8, with COLO 205, with BT-549, with HCT-116, in the assay with NCI/ADR-RES and in the assay on NCI-H23 was > 100 µM (inactive) throughout. Moreover, the GI50 in the assay on SNB-19, in the assay on CAKI-1, in the assay on K562, with DU-145, with EKVX and in the assay with M14 was > 100 µM (inactive) throughout. Also, the GI50 in the assay with SK-MEL-28 was > 100 µM (inactive); in the assay on UO-31, > 100 µM (inactive); with A549, > 100 µM (inactive); in the assay with HCT-15, over 100 µM.

On to `CN(C)C1(N(C)C)Oc2c(c(=O)n(C)c(=O)n2C)C(c2ccccc2)C1(F)F` (stereo not given), for which the GI50 in the assay on COLO 205, with BT-549, with HCT-116, in the assay with HOP-92, in the assay with NCI/ADR-RES and in the assay on NCI-H23 was > 100 µM (inactive) throughout. Further, the GI50 with SNB-19, in the assay with CAKI-1, in the assay on K562, in the assay on DU-145, in the assay on EKVX and with M14 was > 100 µM (inactive) each time. Also, the GI50 in the assay on SK-MEL-28 is > 100 µM (inactive); in the assay with UO-31, > 100 µM (inactive); in the assay with A549, > 100 µM (inactive); in the assay on HCT-15, over 100 µM.

On to `Cc1cn(C2CC(N/C(=N/C#N)NCC3OC(n4cnc5c(N)ncnc54)CC3O)C(CO)O2)c(=O)[nH]c1=O` (stereo not given), for which the GI50 is > 100 µM (inactive) with OVCAR-8; > 100 µM (inactive) with COLO 205; > 100 µM (inactive) in the assay on SR; 77.6 µM (inactive) in the assay on HL-60; > 100 µM (inactive) in the assay on HCT-116; > 100 µM (inactive) in the assay on HOP-92. Also, the GI50 in the assay with NCI/ADR-RES, in the assay on NCI-H23, in the assay with SNB-19, in the assay with CAKI-1, in the assay on IGROV-1 and in the assay with K562 was > 100 µM (inactive) throughout. In addition, the GI50 in the assay on DU-145, in the assay on EKVX, in the assay with M14, in the assay on SK-MEL-28, in the assay with UO-31 and in the assay on A549 was > 100 µM (inactive) throughout. This molecule also displayed a concentration for 50% growth inhibition (GI50) in the assay on HCT-15 of over 100 µM.

`O=C(/C=C\c1ccccc1)N1CCc2ccccc2C1`: the GI50 was 51.9 µM (inactive) in the assay on OVCAR-8; 20.6 µM (inactive) in the assay on COLO 205; 24.1 µM (inactive) with SR; 29.8 µM (inactive) in the assay on HL-60; 34.6 µM (inactive) with HCT-116; 42.6 µM (inactive) with HOP-92. The GI50 with NCI/ADR-RES is 44 µM (inactive); with NCI-H23, 14.9 µM (inactive); with SNB-19 it was 67.8 µM (inactive); in the assay on CAKI-1, 67.1 µM (inactive); in the assay on IGROV-1, 73.8 µM (inactive); in the assay with K562, 19.4 µM (inactive). Further, the GI50 in the assay with DU-145 is > 100 µM (inactive); in the assay with EKVX, 32.4 µM (inactive); in the assay on M14 it was 60.5 µM (inactive); in the assay with SK-MEL-28, 61 µM (inactive); in the assay on UO-31, 39 µM (inactive); in the assay with HCT-15 it was 55.8 µM.

Turning to `Cc1nc(SCC(N)=O)c2sc(=S)n(-c3ccccc3)c2n1`, the GI50 with OVCAR-8, in the assay with COLO 205, with SR, in the assay with HL-60, in the assay on HCT-116 and with HOP-92 was > 10 µM (inactive) throughout. Further, the GI50 with NCI/ADR-RES, in the assay on NCI-H23, in the assay on SNB-19, with CAKI-1, in the assay with IGROV-1 and with K562 was > 10 µM (inactive) each time. Besides, the GI50 with DU-145 was > 10 µM (inactive); in the assay on EKVX, > 10 µM (inactive); in the assay with M14, > 10 µM (inactive); with SK-MEL-28, > 10 µM (inactive); in the assay with A549, > 10 µM (inactive); in the assay with HCT-15, over 10 µM.

In the case of `C=C(C)[C@@]1(O)CCCC[C@@H]1CC(Sc1ccccc1)Sc1ccccc1`, the GI50 in the assay with OVCAR-8 was 19.5 µM (inactive); with COLO 205 it was 16.4 µM (inactive); in the assay with SR, 14.1 µM (inactive); in the assay on HL-60 it was 15.2 µM (inactive); in the assay with HCT-116, 12.5 µM (inactive); with HOP-92, 4.3 µM (inactive). Further, the GI50 with NCI/ADR-RES is 16.3 µM (inactive); in the assay with NCI-H23, 14.2 µM (inactive); with SNB-19, 18.5 µM (inactive); with CAKI-1, 14.9 µM (inactive); in the assay on IGROV-1, 16.4 µM (inactive); with K562 it was 14.2 µM (inactive). Further, the GI50 is 15.7 µM (inactive) with DU-145; 13.4 µM (inactive) in the assay with EKVX; 17.9 µM (inactive) in the assay with M14; 18.1 µM (inactive) in the assay with SK-MEL-28; 16 µM (inactive) in the assay on UO-31; 13.9 µM (inactive) in the assay on A549. For the same molecule, growth in the assay with HCT-15 was halved (GI50) at 15 µM.

As to `COc1ccc(-c2c(N)n(-c3nc4ccccc4s3)c(=O)c3cc([N+](=O)[O-])ccc23)cc1`, the GI50 was 11.2 µM (inactive) in the assay with OVCAR-8; 8.39 µM (inactive) with SR; 99.8 µM (inactive) in the assay with HL-60; 89.9 µM (inactive) in the assay on BT-549; 20.1 µM (inactive) with HCT-116; 16.4 µM (inactive) with HOP-92. The GI50 in the assay on NCI/ADR-RES is 17 µM (inactive); in the assay on NCI-H23 it was 13.8 µM (inactive); with SNB-19, 40.1 µM (inactive); with CAKI-1, 21.3 µM (inactive); in the assay on K562, 23.2 µM (inactive); in the assay on EKVX it was 14 µM (inactive). Moreover, the GI50 in the assay on M14 is 17.8 µM (inactive); in the assay with SK-MEL-28, > 100 µM (inactive); in the assay on UO-31 it was 16.3 µM (inactive); in the assay on A549, 11.2 µM (inactive); in the assay with HCT-15, 41.8 µM.

Consider `CN(C)c1ccc(/C=C2\C[N+](C)(C)C/C(=C\c3ccc(N(C)C)cc3)C2=O)cc1`, for which the GI50 is 23.9 µM (inactive) with OVCAR-8; 2.61 µM (inactive) with COLO 205; 8.09 µM (inactive) in the assay with SR; 2.47 µM (inactive) with HL-60; 10.5 µM (inactive) in the assay on BT-549; 8.93 µM (inactive) in the assay with HCT-116. The GI50 in the assay on HOP-92 was 19.4 µM (inactive); with NCI-H23, 17.7 µM (inactive); in the assay on SNB-19, 17.5 µM (inactive); in the assay on CAKI-1 it was > 100 µM (inactive); in the assay with IGROV-1, 8.57 µM (inactive); in the assay on K562, 7.98 µM (inactive). Besides, the GI50 in the assay on DU-145 is 31.3 µM (inactive); in the assay with EKVX it was 38 µM (inactive); with M14, 20.3 µM (inactive); in the assay with SK-MEL-28 it was 15.3 µM (inactive); with UO-31 it was > 100 µM (inactive); in the assay on A549 it was 20.7 µM (inactive). For the same molecule, the GI50 in the assay with HCT-15 is over 100 µM.

The values are drawn from ChEMBL document CHEMBL1201862, “PubChem BioAssay data set” (2004).
